Laboratory results: patent US20150094321A1, “COMBINATION” (GlaxoSmithKline LLC, priority 2009, published 2015)

Columns and labels:
Test in all cases: Cell line proliferation study
Assay type in all cases: cell-based, human
[1] = test system: DLD1; conditions: DLD1, colon; for IC50: Homo sapiens, DLD-1, 72 hours, read-out: gIC50
Experimental: (§1) In a separate study, combination drug tests with Compounds A and B were conducted using a panel of cell lines from human colon cancers (n=26), lung cancers (n=15) and pancreatic cancers (n=6). Cell lines were obtained from commercial vendors (ATCC and DSMZ). Cell lines were grown in RPMI-1640 supplemented with 2 mM glutamine, 1 mM sodium pyruvate and 10% fetal bovine serum (except for Capan-1 and HuP-T4 which were grown with 20% fetal bovine serum) and maintained at 37° C. and 5% CO2 in a humid incubator. Assays were performed in 384 well microtiter plates with optimum seeding densities for each cell line.
(§2) The test compounds were prepared as 10 mM stocks in 100% DMSO. Further dilutions of the compounds were made in DMSO. Compound A was diluted horizontally in a separate 96 well microtiter plate in rows D-G using a 3-fold dilution series for 10 dilution points. Compound B was similarly diluted horizontally in a 96 well microtiter plate in rows B-E using a 3-fold dilution series for 10 dilution points.
(§3) The two compounds were combined using equal volumes from each drug plate into cell culture media. […] Both Compound A and Compound B were individually titrated in rows B and C (for Compound B) and rows F and G (for Compound A) of the merged drug plate.
(§4) A 1:10 dilution of the drugs was performed in cell culture media prior to addition to the cells.
(§5) The final concentration range for the test compounds was 250 to 0.013 nM for Compound A and 1000 to […] for Compound B. The positive control consisted of culture media with DMSO at 0.1% and cells. The negative control consisted of culture media with DMSO at 0.1%. The cell lines were incubated at 37° C., 5% CO2 in humid air for 72 hours. Cell proliferation was measured using the CellTiter Glo (Promega) reagent according to the manufacturer's protocol. The plates are treated with CellTiter Glo solution and are analyzed for RLU (relative light units) using a Molecular Devices SpectraMax M5 plate reader.
(§6) The percent intensity values were used in model 205 of XLfit (IDBS, Inc.) in Microsoft Excel to calculate gIC50 values using a 4 parameter logistical fit. The midpoint of the growth window (the gIC50) falls half way between the number of cells at the time of compound addition (T=0) and the growth of control cells treated with DMSO at 72 hrs. The number of cells at time zero (T0) is divided from the intensity value at the bottom of the response curve (Ymin) to generate a measure for cell death (Ymin/T0). A value below 1 for Ymin/T0 indicates stronger potency to induce cell death with the treatment when compared to higher values. […]

[2] = test system: Colo201; conditions: Colo201, colon; for IC50: Homo sapiens, COLO 201, 72 hours, read-out: gIC50
Experimental: as §1, §2, §3, §4, §5, §6

[3] = test system: Colo320DM; conditions: colon; for IC50: Homo sapiens, COLO 320DM, 72 hours, read-out: gIC50
Experimental: as §1, §2, §3, §4, §5, §6

[4] = test system: NCIH23; conditions: NCIH23, lung; for IC50: Homo sapiens, NCI-H23, 72 hours, read-out: gIC50
Experimental: as §1, §2, §3, §4, §5, §6

[5] = test system: SW1417; conditions: SW1417, colon; for IC50: Homo sapiens, 72 hours, read-out: gIC50
Experimental: as §1, §2, §3, §4, §5, §6

[6] = test system: SKMES1; conditions: SKMES1, lung; for IC50: Homo sapiens, SK-MES-1, 72 hours, read-out: gIC50
Experimental: as §1, §2, §3, §4, §5, §6

[7] = test system: BxPC3; conditions: BxPC3, pancreas; for IC50: Homo sapiens, BXPC-3, 72 hours, read-out: gIC50
Experimental: as §1, §2, §3, §4, §5, §6

[8] = test system: HCT116; conditions: HCT116, colon; for IC50: Homo sapiens, HCT-116, 72 hours, read-out: gIC50
Experimental: as §1, §2, §3, §4, §5, §6

[9] = test system: NCIH2170; conditions: NCIH2170, lung; for IC50: Homo sapiens, NCI-H2170, 72 hours, read-out: gIC50
Experimental: as §1, §2, §3, §4, §5, §6

[10] = test system: NCIH460; conditions: NCIH460, lung; for IC50: Homo sapiens, NCI-H460, 72 hours, read-out: gIC50
Experimental: as §1, §2, §3, §4, §5, §6

[11] = test system: A549; conditions: A549, lung; for IC50: Homo sapiens, 72 hours, read-out: gIC50
Experimental: as §1, §2, §3, §4, §5, §6

[12] = test system: HCT-15; conditions: HC115, colon; for IC50: Homo sapiens, HCT-15, 72 hours, read-out: gIC50
Experimental: as §1, §2, §3, §4, §5, §6

[13] = test system: SW1116; conditions: SW1116, colon; for IC50: Homo sapiens, SW 1116, 72 hours, read-out: gIC50
Experimental: as §1, §2, §3, §4, §5, §6

[14] = test system: RKO; conditions: colon; for IC50: Homo sapiens, 72 hours, read-out: gIC50
Experimental: as §1, §2, §3, §4, §5, §6

[15] = test system: NCIH520; conditions: NCIH520, lung; for IC50: Homo sapiens, NCI-H520, 72 hours, read-out: gIC50
Experimental: as §1, §2, §3, §4, §5, §6

[16] = test system: Calu6; conditions: Calu6, lung; for IC50: Homo sapiens, Calu-6, 72 hours, read-out: gIC50
Experimental: as §1, §2, §3, §4, §5, §6

[17] = test system: Colo320HSR; conditions: colon; for IC50: Homo sapiens, COLO-320-HSR, 72 hours, read-out: gIC50
Experimental: as §1, §2, §3, §4, §5, §6

[18] = test system: NCIH2228; conditions: NCIH2228, lung; for IC50: Homo sapiens, NCI-H2228, 72 hours, read-out: gIC50
Experimental: as §1, §2, §3, §4, §5, §6

[19] = test system: NCIH747; conditions: NCIH747, colon; for IC50: Homo sapiens, NCI-H747, 72 hours, read-out: gIC50
Experimental: as §1, §2, §3, §4, §5, §6

[20] = test system: Colo205; conditions: Colo205, colon; for IC50: Homo sapiens, COLO 205, 72 hours, read-out: gIC50
Experimental: as §1, §2, §3, §4, §5, §6

Row | SMILES | Ymin/T0 [1] | IC50 [1] [nM] | Ymin/T0 [2] | IC50 [2] [nM] | IC50 [3] [nM] | Ymin/T0 [3] | IC50 [4] [nM] | Ymin/T0 [4] | IC50 [5] [nM] | Ymin/T0 [5] | IC50 [6] [nM] | Ymin/T0 [6] | Ymin/T0 [7] | IC50 [7] [nM] | Ymin/T0 [8] | IC50 [8] [nM] | IC50 [9] [nM] | Ymin/T0 [9] | IC50 [10] [nM] | Ymin/T0 [10] | further results
1 | CC(=O)Nc1cccc(-n2c(=O)n(C3CC3)c(=O)c3c(Nc4ccc(I)cc4F)n(C)c(=O)c(C)c32)c1 [Compound A, N-{3-[3-cyclopropyl-5-(2-fluoro-4-iodo-phenylamino)-6,8-dimethyl-2,4,7-trioxo-3,4,6,7-tetrahydro-2H-pyrido[4,3-d]pyrimidin-1-yl]phenyl}acetamide] | 397 | 342 | −8.96 | 4 | > 250 | 81.01 | > 250 | 36.3 | 2.86 | 16.19 | 80.4 | 19.5 | 20.86 | > 250 | 19.40 | 23.2 | > 250 | 59.5 | 63 | 39.1 | Ymin/T0 [11]: 15.9; IC50 [11]: 12.9 nM; Ymin/T0 [12]: 57.0; IC50 [12]: > 250 nM; IC50 [13]: 14.6 nM; Ymin/T0 [13]: 2.28; IC50 [14]: 77.8 nM; Ymin/T0 [14]: 24.44; IC50 [15]: > 250 nM; Ymin/T0 [15]: 70.2; Ymin/T0 [16]: 15.0; IC50 [16]: 53.1 nM; IC50 [17]: > 250 nM; Ymin/T0 [17]: 78.4; IC50 [18]: > 250 nM; Ymin/T0 [18]: 39.7; IC50 [19]: 5.35 nM; Ymin/T0 [19]: 5.55; Ymin/T0 [20]: −1.30; IC50 [20]: 0.77 nM
2 | Cn1ncc(Cl)c1-c1cc(C(=O)N[C@H](CN)Cc2ccc(F)c(F)c2)oc1Cl [Compound B, N-{(1S)-2-amino-1-[(3,4-difluorophenyl)methyl]ethyl}-5-chloro-4-(4-chloro-1-methyl-1H-pyrazol-5-yl)-2-furancarboxamide] | 29.0 | > 1000 | 80.16 | > 1000 | > 1000 | 9.81 | > 1000 | 41.5 | > 1000 | 3.63 | > 1000 | 49.6 | 71.87 | > 1000 | 25.31 | > 1000 | > 1000 | 18.2 | 664 | 20.8 | Ymin/T0 [11]: 32.7; IC50 [11]: > 1000 nM; Ymin/T0 [12]: 30.4; IC50 [12]: > 1000 nM; IC50 [13]: > 1000 nM; Ymin/T0 [13]: 37.32; IC50 [14]: > 1000 nM; Ymin/T0 [14]: 17.13; IC50 [15]: 568 nM; Ymin/T0 [15]: 15.0; Ymin/T0 [16]: 56.3; IC50 [16]: > 1000 nM; IC50 [17]: > 1000 nM; Ymin/T0 [17]: 28.6; IC50 [18]: > 1000 nM; Ymin/T0 [18]: 37.1; IC50 [19]: > 1000 nM; Ymin/T0 [19]: 23.79; Ymin/T0 [20]: 14.87; IC50 [20]: > 1000 nM
